Source: ChEMBL document CHEMBL1201862, “PubChem BioAssay data set” (2004)
Activity calls are given as the source filed them.

Experiments:
[1] = molecular target: ADP-ribosylation factor GTPase-activating protein 1 (Rattus norvegicus, UniProt Q62848); assay: Fluorescence polarization-based biochemical high throughput dose response screening assay to identify inhibitors of ADP-ribosylation factor GTPase activating protein 1 (ARFGAP1).; format: functional
[2] = molecular target: Arf-GAP with SH3 domain, ANK repeat and PH domain-containing protein 1 (Homo sapiens, UniProt Q9ULH1); format: functional;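 further: biochemical fluorescence polarization dose–response screen measuring inhibition of ASAP1; ASAP1 GAP domain stimulating GTP hydrolysis by truncated human ARF1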
[3] = molecular target: T1, Scavenger receptor class B member 1 (Mus musculus, UniProt Q61009); assay: mouse SR-BI DiI-HDL uptake blockers – ldlA[mSR-BI] cells, fluorescence, cherry pick, dose response (AID 493194); format: functional, cell-based;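 further: cellular uptake of fluorescent DiI-labeled HDL measured as cell fluorescence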
T1 sequence (Q61009 whole entry): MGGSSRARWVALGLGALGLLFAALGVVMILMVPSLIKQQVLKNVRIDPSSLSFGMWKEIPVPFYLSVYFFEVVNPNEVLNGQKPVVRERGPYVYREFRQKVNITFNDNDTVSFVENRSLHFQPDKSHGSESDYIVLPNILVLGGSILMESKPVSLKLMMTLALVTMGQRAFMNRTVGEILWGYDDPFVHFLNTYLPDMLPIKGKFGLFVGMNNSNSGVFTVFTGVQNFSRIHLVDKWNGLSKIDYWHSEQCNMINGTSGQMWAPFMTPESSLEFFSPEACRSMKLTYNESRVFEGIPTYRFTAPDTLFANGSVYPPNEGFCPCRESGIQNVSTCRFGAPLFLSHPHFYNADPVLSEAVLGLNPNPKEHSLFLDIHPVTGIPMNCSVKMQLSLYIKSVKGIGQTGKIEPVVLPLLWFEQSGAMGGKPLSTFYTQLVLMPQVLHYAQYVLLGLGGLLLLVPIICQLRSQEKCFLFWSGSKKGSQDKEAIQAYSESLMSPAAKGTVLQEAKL

[4] = molecular target: Broad substrate specificity ATP-binding cassette transporter ABCG2 (Homo sapiens, UniProt Q9UNQ0); assay: blockers of JC-1 export by ABCG2 – Ig-MXP3 cells, flow cytometry, dose response (AID 1690); format: functional
[5] = molecular target: Long-chain-fatty-acid--AMP ligase FadD28 (Mycobacterium tuberculosis, UniProt P9WQ59); assay: Fluorescence polarization aasay to screen for inhibitors that compete for the binding of FadD28 to a bisubstrate Measured in Biochemical System Using Plate Reader - 2147-01_Inhibitor_Dose_CherryPick_Activity.; format: functional, Mycobacterium tuberculosis H37Rv
[6] = cytotoxicity toward MDA-MB-231 breast cancer cells – cell-based, CellTiter-Glo luminescence, cherry-pick, cytotoxicity control for RAD54 inhibitor project, dose response (AID 651692); format: functional
[7] = molecular target: T2, DNA repair and recombination protein RAD54-like (Homo sapiens, UniProt Q92698); assay: RAD54 Holliday junction migration blockers – biochemical, fluorescence, cherry-picked samples, dose series, confirmation (AID 651657); format: functional
T2 sequence (Q92698 whole entry): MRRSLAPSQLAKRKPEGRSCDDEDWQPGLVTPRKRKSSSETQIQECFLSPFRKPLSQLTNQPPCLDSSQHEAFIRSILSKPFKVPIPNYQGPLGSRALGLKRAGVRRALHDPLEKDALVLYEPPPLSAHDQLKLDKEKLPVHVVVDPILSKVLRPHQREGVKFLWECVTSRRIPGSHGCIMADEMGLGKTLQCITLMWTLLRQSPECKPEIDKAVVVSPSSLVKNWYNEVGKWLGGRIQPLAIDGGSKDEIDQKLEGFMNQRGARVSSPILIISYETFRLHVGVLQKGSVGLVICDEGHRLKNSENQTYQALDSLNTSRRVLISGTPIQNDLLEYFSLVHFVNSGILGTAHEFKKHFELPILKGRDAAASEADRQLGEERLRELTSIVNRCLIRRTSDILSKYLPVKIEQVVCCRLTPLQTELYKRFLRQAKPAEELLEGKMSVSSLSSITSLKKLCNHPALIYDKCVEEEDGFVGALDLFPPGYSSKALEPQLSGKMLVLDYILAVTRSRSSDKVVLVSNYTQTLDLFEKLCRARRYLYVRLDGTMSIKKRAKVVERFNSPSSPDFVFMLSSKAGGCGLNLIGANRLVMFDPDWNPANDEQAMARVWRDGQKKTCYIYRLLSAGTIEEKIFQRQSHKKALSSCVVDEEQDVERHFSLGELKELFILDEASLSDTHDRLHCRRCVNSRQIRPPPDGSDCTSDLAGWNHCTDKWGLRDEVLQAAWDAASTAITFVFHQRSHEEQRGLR

[8] = molecular target: SWI/SNF-related matrix-associated actin-dependent regulator of chromatin subfamily A member 2 (Homo sapiens, UniProt P51531); assay: Luminescence-based cell-based high throughput dose response assay to identify activators of the function of SWI/SNF related, matrix associated, actin dependent regulator of chromatin, subfamily a, member 2 (SMARCA2, BRM).; format: functional
[9] = Counterscreen for activators of the function of SWI/SNF related, matrix associated, actin dependent regulator of chromatin, subfamily a, member 2 (SMARCA2, BRM): Luminescence-based cell-based high throughput dose response assay to identify non-selective compounds using the VP16 reporter assay.; format: functional
[10] = molecular target: T3, DNA repair protein RAD52 homolog (Homo sapiens, UniProt P43351); format: functional, biochemical
T3 sequence (P43351 whole entry): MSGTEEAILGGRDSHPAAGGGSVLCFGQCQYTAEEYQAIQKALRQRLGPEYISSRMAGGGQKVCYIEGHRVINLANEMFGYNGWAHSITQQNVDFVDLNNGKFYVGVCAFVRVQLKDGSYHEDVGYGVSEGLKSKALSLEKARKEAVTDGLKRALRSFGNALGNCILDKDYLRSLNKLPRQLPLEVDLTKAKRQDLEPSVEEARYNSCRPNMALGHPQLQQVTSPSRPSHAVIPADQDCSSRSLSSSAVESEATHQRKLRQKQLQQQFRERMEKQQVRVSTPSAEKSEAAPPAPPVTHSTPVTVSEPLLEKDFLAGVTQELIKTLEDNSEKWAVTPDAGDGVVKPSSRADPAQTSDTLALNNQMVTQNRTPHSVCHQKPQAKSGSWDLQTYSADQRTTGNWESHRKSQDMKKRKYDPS

[11] = microbe, parasite or virus in culture; format: functional; settings: Mycobacterium tuberculosis
[12] = molecular target: Matrix metalloproteinase-14 (Homo sapiens, UniProt P50281); assay: Dose Response confirmation of uHTS hits for a small molecule inhibitors of MT1-MMP activation in a fluorescence assay set 1.; format: functional
[13] = molecular target: T4, RNA-binding protein pos-1 (Caenorhabditis elegans, UniProt G5EF15); assay: disruptors of C. elegans POS-1 RNA interaction – biochemical, fluorescence polarization, dose response (AID 1964);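 further: purified POS-1 fused to maltose binding protein made in E. coli; potency of compounds blocking POS-1 binding to fluorescent RNA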
T4 sequence (G5EF15 whole entry): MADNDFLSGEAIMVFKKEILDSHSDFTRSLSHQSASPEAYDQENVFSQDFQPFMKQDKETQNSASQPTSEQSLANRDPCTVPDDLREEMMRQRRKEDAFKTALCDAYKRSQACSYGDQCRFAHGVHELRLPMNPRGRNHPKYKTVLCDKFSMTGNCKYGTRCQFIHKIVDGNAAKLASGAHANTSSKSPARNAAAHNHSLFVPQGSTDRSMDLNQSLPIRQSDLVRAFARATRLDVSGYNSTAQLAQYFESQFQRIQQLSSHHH

[14] = molecular target: T5, Zinc finger protein mex-5 (Caenorhabditis elegans, UniProt Q9XUB2); assay: potency of MEX-5 RNA-binding blockers – biochemical, C. elegans, fluorescence polarization, dose response (AID 1960)
T5 sequence (Q9XUB2 whole entry): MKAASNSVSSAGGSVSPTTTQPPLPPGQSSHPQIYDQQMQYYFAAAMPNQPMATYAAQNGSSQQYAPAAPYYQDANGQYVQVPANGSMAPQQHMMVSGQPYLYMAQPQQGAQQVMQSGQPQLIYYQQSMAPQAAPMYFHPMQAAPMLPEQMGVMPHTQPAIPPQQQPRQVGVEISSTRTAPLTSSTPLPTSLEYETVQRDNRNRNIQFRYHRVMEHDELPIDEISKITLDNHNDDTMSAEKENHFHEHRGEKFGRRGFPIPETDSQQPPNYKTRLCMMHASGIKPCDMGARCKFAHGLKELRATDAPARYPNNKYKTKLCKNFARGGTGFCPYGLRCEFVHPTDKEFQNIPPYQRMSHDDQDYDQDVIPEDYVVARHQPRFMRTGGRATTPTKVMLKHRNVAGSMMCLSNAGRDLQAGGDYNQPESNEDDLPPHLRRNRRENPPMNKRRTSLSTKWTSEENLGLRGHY

Beta-lactamase [15] = molecular target: Beta-lactamase (Pseudomonas aeruginosa, UniProt Q79MP6);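 further: biochemical dose-response test of metallo-beta-lactamase enzyme inhibition, read out by epi-absorbance; purified recombinant IMP-1 metallo-beta-lactamase with nitrocefin as substrate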
Beta-lactamase [16] = molecular target: Beta-lactamase (Salmonella choleraesuis (strain SC-B67), UniProt Q5J463)
Mu-type opioid receptor = Mu-type opioid receptor (Homo sapiens, UniProt P35372); format: functional, cell-based;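 further: U2OS cells with beta-arrestin recruitment to OPRM1 by beta-gal complementation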
[17] = molecular target: 5-hydroxytryptamine receptor 2A (Mus musculus, UniProt P35363); format: functional, cell-based;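 further: CHO-K1 cells with tagged receptor and beta-arrestin; agonist potency measured as compound-induced activation of the receptor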
cells [18] = format: functional, cell-based
[19] = molecular target: Nuclear receptor subfamily 0 group B member 1 (Homo sapiens, UniProt P51843); format: functional, cell-based;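 further: HEK293T cells transfected with SF-1 and DAX-1 plus StAR promoter luciferase reporter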
HeLa = assay: viability loss in HeLa cells – cell-based, ATP luminescence, cherry-pick samples, cytotoxicity control, dose response (AID 687004); format: functional; settings: Homo sapiens
HEK293 = assay: viability loss in HEK293T cells – cell-based, ATP luminescence, cherry-pick samples, cytotoxicity control, dose response (AID 687005); format: functional; settings: Homo sapiens;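 further: cells exposed to compound for 48 hours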
[20] = HEK293 Cytotoxicity Assay Measured in Cell-Based System Using Plate Reader - 7071-01_Inhibitor_Dose_CherryPick_Activity_Set2.; format: functional
[21] = molecular target: T1, Scavenger receptor class B member 1; assay: blockers of DiI-HDL lipid transfer via SR-BI – cell-based, ldlA[mSR-BI] CHO, DiI fluorescence, dry powder, set 10, dose response (AID 624029); format: functional
[22] = T. cruzi growth inhibition in host cells, dose response, cell-based, plate reader, dry powder, set 2 (AID 652275); format: functional
[23] = Late stage assay provider results from the probe development effort to identify inhibitors of the Plasmodium falciparum M17 Leucine Aminopeptidase (M17LAP): radiolabel-based cell-based dose response assay to identify compounds that inhibit P. falciparum growth in RBCs Set 2.; format: functional
[24] = Trypanosoma cruzi growth suppression in host cells – NIH3T3 host cells, beta-gal luminescence, confirmation (AID 2044); format: functional, cell-based;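 further: intracellular parasites grown in NIH/3T3 mouse fibroblasts as host cells; luminescent beta-galactosidase reporter signal from transgenic T. cruzi replicating inside host cells; inhibitors lower the luminescence signal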
[25] = NIH3T3 cell viability loss – ATP luminescence, mouse fibroblasts, counter-screen, dose response (AID 2010); format: functional, cell-based;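 further: cells exposed to compound for about 90 hours before reading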
[26] = THP-1 cell cytotoxicity, dose response, cytotoxicity control for non-replicating M. tuberculosis project (AID 489025); format: functional
[27] = HepG2 cell cytotoxicity, dose response, cytotoxicity control for non-replicating M. tuberculosis project (AID 489018); format: functional; settings: Mycobacterium tuberculosis
[28] = Vero E6 cell cytotoxicity, dose response, cytotoxicity control for non-replicating M. tuberculosis project, secondary assay (AID 492998); format: functional, VeroE6; settings: Vero C1008
cells [29] = format: functional
[30] = molecular target: T6, Sentrin-specific protease 8 (Homo sapiens, UniProt Q96LD8); format: functional
T6 sequence (Q96LD8 whole entry): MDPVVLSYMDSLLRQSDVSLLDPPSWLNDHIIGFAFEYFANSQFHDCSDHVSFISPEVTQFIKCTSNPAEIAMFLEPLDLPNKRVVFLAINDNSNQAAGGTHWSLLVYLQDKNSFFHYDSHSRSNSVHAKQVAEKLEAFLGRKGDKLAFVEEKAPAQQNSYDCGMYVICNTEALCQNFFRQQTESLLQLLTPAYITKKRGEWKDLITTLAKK

[31] = molecular target: T6, Sentrin-specific protease 8; format: functional; remark: listed apart in the source

5-hydroxytryptamine receptor 2A, sequence (P35363 whole entry): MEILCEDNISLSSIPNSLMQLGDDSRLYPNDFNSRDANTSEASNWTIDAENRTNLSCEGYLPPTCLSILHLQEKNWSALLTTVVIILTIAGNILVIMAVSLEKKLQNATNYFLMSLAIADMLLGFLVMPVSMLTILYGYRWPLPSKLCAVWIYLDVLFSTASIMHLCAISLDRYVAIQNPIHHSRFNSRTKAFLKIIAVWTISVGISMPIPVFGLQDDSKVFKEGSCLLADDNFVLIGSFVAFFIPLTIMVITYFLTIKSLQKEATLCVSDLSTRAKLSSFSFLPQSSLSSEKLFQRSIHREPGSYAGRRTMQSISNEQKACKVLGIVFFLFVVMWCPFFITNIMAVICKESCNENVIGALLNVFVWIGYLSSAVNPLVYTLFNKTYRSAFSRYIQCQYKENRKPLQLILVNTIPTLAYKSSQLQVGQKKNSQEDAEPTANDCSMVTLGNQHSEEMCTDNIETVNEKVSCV
ADP-ribosylation factor GTPase-activating protein 1, sequence (Q62848 whole entry, the tested form may be a part): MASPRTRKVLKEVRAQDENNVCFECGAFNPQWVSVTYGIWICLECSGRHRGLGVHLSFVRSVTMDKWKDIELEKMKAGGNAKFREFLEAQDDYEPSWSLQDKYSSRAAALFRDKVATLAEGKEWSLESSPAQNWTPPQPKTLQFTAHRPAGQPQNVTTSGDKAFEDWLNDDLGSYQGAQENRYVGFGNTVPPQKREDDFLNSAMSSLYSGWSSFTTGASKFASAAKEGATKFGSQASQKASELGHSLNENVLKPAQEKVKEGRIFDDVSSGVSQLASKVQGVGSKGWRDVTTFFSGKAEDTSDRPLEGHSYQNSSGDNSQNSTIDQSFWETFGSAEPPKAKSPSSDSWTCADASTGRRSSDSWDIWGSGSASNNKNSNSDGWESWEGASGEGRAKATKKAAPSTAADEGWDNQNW
Beta-lactamase (Salmonella choleraesuis (strain SC-B67), UniProt Q5J463), sequence (Q5J463 whole entry): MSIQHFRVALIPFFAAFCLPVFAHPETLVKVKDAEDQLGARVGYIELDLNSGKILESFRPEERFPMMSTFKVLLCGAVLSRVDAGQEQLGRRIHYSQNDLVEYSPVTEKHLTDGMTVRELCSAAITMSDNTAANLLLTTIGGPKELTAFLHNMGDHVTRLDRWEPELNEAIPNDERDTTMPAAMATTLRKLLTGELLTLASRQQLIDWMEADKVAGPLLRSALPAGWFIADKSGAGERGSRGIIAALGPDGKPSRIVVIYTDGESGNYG
Nuclear receptor subfamily 0 group B member 1, sequence (P51843 whole entry): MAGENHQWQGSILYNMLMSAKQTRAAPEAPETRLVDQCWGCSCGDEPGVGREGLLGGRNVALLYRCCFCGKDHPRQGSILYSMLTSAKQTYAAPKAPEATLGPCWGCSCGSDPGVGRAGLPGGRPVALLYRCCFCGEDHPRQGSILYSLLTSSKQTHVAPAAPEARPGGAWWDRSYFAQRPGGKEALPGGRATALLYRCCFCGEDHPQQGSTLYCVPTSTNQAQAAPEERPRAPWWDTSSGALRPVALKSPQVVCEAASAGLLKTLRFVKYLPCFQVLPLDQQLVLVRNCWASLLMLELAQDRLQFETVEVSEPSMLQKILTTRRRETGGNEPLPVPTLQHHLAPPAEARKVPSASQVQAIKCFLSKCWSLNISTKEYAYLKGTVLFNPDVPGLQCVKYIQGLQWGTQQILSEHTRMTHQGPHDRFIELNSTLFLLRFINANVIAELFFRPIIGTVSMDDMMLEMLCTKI
Mu-type opioid receptor, sequence (P35372 whole entry): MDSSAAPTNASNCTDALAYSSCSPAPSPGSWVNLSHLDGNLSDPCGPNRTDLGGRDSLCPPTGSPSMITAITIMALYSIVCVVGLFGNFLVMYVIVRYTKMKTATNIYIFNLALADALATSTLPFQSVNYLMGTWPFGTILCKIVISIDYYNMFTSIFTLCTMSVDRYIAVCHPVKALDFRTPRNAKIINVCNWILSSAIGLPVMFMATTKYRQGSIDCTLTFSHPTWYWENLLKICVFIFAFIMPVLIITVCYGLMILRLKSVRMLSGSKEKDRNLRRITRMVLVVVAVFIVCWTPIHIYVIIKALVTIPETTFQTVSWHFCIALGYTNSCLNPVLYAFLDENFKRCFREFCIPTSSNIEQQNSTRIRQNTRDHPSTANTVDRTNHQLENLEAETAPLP
Broad substrate specificity ATP-binding cassette transporter ABCG2, sequence (Q9UNQ0 whole entry): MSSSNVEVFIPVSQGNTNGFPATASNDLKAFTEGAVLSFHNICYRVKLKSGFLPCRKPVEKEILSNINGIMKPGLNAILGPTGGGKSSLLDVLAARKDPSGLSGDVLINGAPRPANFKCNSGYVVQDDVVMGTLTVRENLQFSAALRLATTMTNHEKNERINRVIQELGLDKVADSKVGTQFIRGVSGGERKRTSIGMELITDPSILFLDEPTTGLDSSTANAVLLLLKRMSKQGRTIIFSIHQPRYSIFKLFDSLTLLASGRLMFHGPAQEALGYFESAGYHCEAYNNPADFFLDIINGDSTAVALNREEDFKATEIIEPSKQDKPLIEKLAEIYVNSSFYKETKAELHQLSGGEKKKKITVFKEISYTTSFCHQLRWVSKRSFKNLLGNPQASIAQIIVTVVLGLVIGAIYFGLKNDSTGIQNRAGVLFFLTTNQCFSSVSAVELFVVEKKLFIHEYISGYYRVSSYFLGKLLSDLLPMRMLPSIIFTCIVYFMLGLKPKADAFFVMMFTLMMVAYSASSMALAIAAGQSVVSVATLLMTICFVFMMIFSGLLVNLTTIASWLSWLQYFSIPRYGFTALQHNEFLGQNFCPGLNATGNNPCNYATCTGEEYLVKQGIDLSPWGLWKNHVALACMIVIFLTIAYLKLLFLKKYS
Beta-lactamase (Pseudomonas aeruginosa, UniProt Q79MP6), sequence (Q79MP6 whole entry): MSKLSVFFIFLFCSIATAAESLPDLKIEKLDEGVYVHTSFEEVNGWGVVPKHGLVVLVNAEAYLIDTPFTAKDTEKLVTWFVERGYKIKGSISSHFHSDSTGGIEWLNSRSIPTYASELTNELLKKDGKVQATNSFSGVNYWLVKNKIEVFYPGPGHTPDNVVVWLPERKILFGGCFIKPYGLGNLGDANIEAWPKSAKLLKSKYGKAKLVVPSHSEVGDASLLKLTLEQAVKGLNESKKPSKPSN
SWI/SNF-related matrix-associated actin-dependent regulator of chromatin subfamily A member 2, sequence (P51531 whole entry): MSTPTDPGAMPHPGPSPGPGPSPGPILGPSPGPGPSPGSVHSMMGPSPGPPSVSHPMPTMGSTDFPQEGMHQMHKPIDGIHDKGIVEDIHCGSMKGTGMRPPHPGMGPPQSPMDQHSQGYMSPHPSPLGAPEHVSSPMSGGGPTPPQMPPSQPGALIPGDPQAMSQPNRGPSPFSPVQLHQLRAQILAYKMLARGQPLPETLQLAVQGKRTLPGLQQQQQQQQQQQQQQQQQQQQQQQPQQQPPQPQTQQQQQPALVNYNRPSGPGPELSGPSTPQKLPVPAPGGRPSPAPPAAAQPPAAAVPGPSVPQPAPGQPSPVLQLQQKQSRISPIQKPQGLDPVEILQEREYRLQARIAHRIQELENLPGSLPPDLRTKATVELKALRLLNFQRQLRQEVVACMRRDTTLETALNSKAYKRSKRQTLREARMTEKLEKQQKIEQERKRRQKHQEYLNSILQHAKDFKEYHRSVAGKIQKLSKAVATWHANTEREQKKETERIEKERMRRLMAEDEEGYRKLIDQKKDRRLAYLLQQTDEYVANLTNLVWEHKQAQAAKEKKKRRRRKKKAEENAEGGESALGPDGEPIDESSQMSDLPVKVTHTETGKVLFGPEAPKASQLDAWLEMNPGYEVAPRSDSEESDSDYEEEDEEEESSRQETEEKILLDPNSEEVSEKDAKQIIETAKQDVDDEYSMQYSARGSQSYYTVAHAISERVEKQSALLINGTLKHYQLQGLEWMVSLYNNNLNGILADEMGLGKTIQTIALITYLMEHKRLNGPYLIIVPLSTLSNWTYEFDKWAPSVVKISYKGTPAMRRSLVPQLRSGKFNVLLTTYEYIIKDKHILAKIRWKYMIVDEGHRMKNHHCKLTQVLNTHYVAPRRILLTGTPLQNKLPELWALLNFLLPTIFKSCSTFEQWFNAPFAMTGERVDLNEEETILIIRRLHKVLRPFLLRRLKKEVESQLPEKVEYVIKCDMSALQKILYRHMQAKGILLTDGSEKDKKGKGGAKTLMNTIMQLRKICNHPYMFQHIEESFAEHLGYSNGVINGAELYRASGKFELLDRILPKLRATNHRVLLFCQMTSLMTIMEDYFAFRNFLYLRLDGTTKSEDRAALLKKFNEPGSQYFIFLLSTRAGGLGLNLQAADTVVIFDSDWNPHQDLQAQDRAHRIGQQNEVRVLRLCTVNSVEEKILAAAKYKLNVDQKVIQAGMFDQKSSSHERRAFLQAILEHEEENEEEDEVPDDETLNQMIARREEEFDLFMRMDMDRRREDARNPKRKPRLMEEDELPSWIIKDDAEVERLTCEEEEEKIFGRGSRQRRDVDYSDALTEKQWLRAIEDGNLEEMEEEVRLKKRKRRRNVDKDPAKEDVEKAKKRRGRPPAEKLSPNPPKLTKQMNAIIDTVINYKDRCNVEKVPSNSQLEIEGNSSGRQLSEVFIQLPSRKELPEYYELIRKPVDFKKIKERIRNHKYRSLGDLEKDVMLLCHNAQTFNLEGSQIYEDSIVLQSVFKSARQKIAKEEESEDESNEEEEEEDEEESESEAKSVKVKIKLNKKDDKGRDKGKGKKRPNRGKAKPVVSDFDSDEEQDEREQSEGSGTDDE

## COc1ccc([N+](=O)[O-])cc1NC(=O)c1ccc(Br)s1
[1]
  IC50: 35.6 µM (inactive)
[2]
  IC50: 20.8 µM (inactive)

## Cc1c(C(=O)Nc2ccc(F)cc2)c2ccccn2c1CCc1ccncc1
[3]
  AC50: 20.4 µM (active)
[4]
  EC50: 6.84 µM (inactive)

## O=[N+]([O-])c1ccc(CNc2ccc(Cl)cc2)s1
[5]
  AC50: > 100 µM (inactive)

## COc1cc(Nc2c3ccccc3nc3ccccc23)cc(OC)c1OC
[6]
  AC50: 29.2 µM (active)
[7]
  AC50: 14.8 µM (active)
[8]
  EC50: > 91.2 µM (inactive)
[9]
  EC50: > 91.2 µM (inactive)
[10]
  AC50: 5.17 µM (active)

## COc1ccc(-c2oc3ccc(-c4ccc(OC)nc4)cc3c2C#CC2(O)CCCCC2)cc1
[11]
  CC50: > 40 µM (active)
[12]
  IC50: 5.57 µM (active)

## COc1ccc(/C=C2\CCCc3c2nc2ccccc2c3C(=O)O)cc1OC
[13]
  EC50: 9.28 µM (active)
[14]
  EC50: 8.26 µM (inconclusive)
Beta-lactamase [15]
  IC50: > 59.6 µM (inactive)
Beta-lactamase [16]
  IC50: 11.2 µM (inactive)

## Cc1ccc(CN2CCN(C(=O)c3ccco3)CC2)cc1
Mu-type opioid receptor
  EC50: 92.5 µM (inactive)
[17]
  EC50: 0.475 µM (active)

## CC(=Nc1ccccc1)C1=C(O)C(Cc2cccc(F)c2)NC1=O (centres undefined)
Cells [18]
  IC50: > 67.5 µM (inactive)
[19]
  IC50: > 67.5 µM (inactive)

## C[C@H]1CN([C@@H](C)CO)S(=O)(=O)c2ccc(C#Cc3ccccn3)cc2O[C@@H]1CN(C)Cc1ccccc1
HeLa
  AC50: > 52 µM (inactive)
HEK293
  AC50: 24.2 µM (active)
[20]
  AC50: 24.2 µM (active)

## CC(C)NC(=O)Nc1ccc2c(c1)C(=O)N([C@@H](C)CO)C[C@@H](C)[C@@H](CN(C)S(=O)(=O)c1ccc(Cl)cc1)O2
[21]
  AC50: 69.6 µM (active)

## CN(C)C(=O)c1ccc(-c2ccc([C@H]3[C@H](CO)N4CCCCN(C(=O)C5CCC5)C[C@@H]34)cc2)cc1
[22]
  AC50: 0.072 µM (active)

## CCC(C)Oc1ccc(CC(=O)NO)cc1 (centres undefined)
[23]
  IC50: 16.3 µM (inactive)

## Cc1ccccc1NCC(=O)N/N=C\c1ccc([N+](=O)[O-])s1
[24]
  EC50: 0.506 µM (active)
[25]
  EC50: > 60 µM (not active)
[26]
  CC50: 18.8 µM (active)
[27]
  CC50: 16 µM (active)
[28]
  CC50: 13.8 µM (active)
Cells [29]
  IC50: 5.71 µM (active)
[30]
  IC50: 46.7 µM (active)
[31]
  IC50: 90.4 µM (inactive)
